Laboratory results taken from PubChem BioAssay AID2305 (GlaxoSmithKline (GSK), 2010).

Each compound was assayed on P. falciparum 3D7 growth, pLDH absorbance (assay: P. falciparum 3D7 growth inhibition, dose response, strain 3D7 (AID 2305)).

| Structure (SMILES) | IC50 [nM] |
| --- | --- |
| O=C(Nc1cccc(CN2CCCN(Cc3ccc4c(c3)OCO4)CC2)c1)c1ccc(-c2ccccc2)cc1 | 650 |
| CC(O)C1CCCCN1C(=O)c1ccc(-c2ccc(-c3nc4ccc(F)cc4[nH]3)cc2)cc1 (stereo not drawn) | 440 |
| O=C(Nc1cccnc1)c1cn(-c2ccccc2)nc1-c1cccs1 | 870 |
| CC(C)N(Cc1ccc(-c2ccc(C(F)(F)F)cc2)cc1)C(=O)Cn1c(CCc2cccc(F)c2F)cc(=O)c2ccc(CCCN3CCCCC3)cc21 | 740 |
| CCCC(C)Nc1nc(C)cc(N[C@@H](CC(C)C)C(=O)NC2CCCC2)n1 (stereo partly drawn) | 1080 |
| Cc1cc(N2Cc3ccccc3C2)nc(Nc2cccc(C#N)c2)n1 | 170 |
| Cn1cnc(CCNC(=O)c2cccc(-c3ccc(-c4nc5ccc(F)cc5[nH]4)cc3)c2)c1 | 940 |
| C#CCCC(=O)Nc1cccc(-c2cccc(-c3nc4c(C)cccc4[nH]3)c2)c1 | 740 |
| COc1nc2c(CCN3CCC(NCc4ccc5c(n4)NC(=O)CO5)CC3)c(Cl)cnc2cc1F | 420 |
| Cc1cc(C)c(-c2n[nH]c3c2C(c2cccc(Cl)c2)N(Cc2ccco2)C3=O)c(O)c1 (stereo not drawn) | 1010 |
| Cc1noc(C)c1-c1cccc(CNCc2ccc(-c3cccc(-c4nc5ccc(F)cc5[nH]4)c3)cc2)c1 | 550 |
| N=C(N)c1ccc(-c2cc3ccc(C(=N)N)cc3[nH]2)cc1 | 60 |
| CNC(=O)/C=C/c1cc(NC(=O)Nc2ccnc3c(Br)cccc23)ccc1OC | 860 |
| CCCCCCn1ccc2c3c(N)nc(N)nc3ccc21 | 150 |
| O=C(Nc1ccc(Cn2ncc(N3CCCNCC3)c(Cl)c2=O)cc1)Nc1cc(F)cc(C(F)(F)F)c1 | 770 |
| COCCN1CCC(N(Cc2ccc(-c3ccc(OC(F)(F)F)cc3)cc2)C(=O)Cn2c(CCc3cccc(F)c3F)cc(=O)c3ccccc32)CC1 | 1210 |
| O=C(Nc1cccc(-c2cccc(-c3nc4ccc(F)cc4[nH]3)c2)c1)Nc1ccc(F)c(F)c1F | 90 |
| Cc1cccc2[nH]c(-c3ccc(-c4cccc(CNCc5ccccc5)c4)s3)nc12 | 740 |
| Cc1ccc2[nH]ncc2c1N(CC1CCCCC1)c1ccnc(Nc2ccc(OCC(O)CN3CC=CCC3)cc2)n1 (stereo not drawn) | 620 |
| CS(=O)(=O)c1ccc(-c2cc(C(F)(F)F)nc(N[C@@H]3CCCC[C@H]3OCc3ccccc3)n2)cc1 | 60 |
| COc1cc(N)c(Cl)cc1C(=O)NC1CCC(NCC2CCCCC2)CC1 (stereo not drawn) | 430 |
| O=C(NC1CCN(c2ccnc3cc(Cl)ccc23)C1)c1cccc(F)c1 (stereo not drawn) | 180 |
| Ic1cc(Nc2ncnc3ccsc23)ccc1OCc1ccccc1 | 770 |

| Structure (SMILES) | IC50 [nM] |
| --- | --- |
| CN1CCN(c2ccnc3ccc(NC(=O)Nc4ccc(Br)cc4)cc23)CC1 | 90 |
| CCN(CC)CCOC(=O)c1ccc(NC(=O)c2cn(-c3ccccc3)nc2-c2cccs2)cc1 | 380 |
| CCCCCCCN1CC[C@H](CC(=O)Nc2ccnc3ccc(OC)cc23)[C@@H](CC)C1 | 590 |
| C=C[C@H]1CN2CC[C@H]1C[C@H]2[C@H](O)c1ccnc2ccccc12 | 170 |
| O=C(/C=C/c1ccc(Cl)c(Cl)c1)NCCCCCN1CCCC(c2c[nH]c3ccccc23)C1 (stereo not drawn) | 810 |
| Cc1cccc(/C=C/C(=O)NC2CCC(N3CCC(c4ccccc4C)CC3)CC2)c1 (stereo not drawn) | 1110 |
| O=C(Nc1cccc(Cl)c1)c1cnc(N2CCN(c3ccncc3)CC2)c(Cl)c1 | 960 |
| COc1ccc(-c2nc(NC(=O)CS(=O)(=O)c3ccc(F)cc3)sc2C)cc1 | 240 |
| Cc1ccc(-c2nnc(Nc3ccc(C(=O)N4CCCCC4)cc3)c3ccccc23)cc1S(=O)(=O)NCC1CCCO1 (stereo not drawn) | 710 |
| CCCCCCCN1CC[C@@H](CCCc2ccnc3ccc(OCCCCN=C(N)NO)cc23)[C@@H](CC)C1 | 950 |
| O=C(Nc1nc(-c2ccccn2)cs1)c1ccc(S(=O)(=O)N2CCc3ccccc32)cc1 | 830 |
| COc1ccc2nccc(N3CCC(CCNCc4cc5c(cn4)OCCO5)CC3)c2c1 | 870 |
| CCCCCCn1c(Sc2ccc(C#N)c([N+](=O)[O-])c2)nnc1-c1cccc(Cl)c1 | 610 |
| CN(C)CCC=C1c2ccccc2Sc2c(O)cc(Cl)cc21 | 280 |
| CC(C)(C)c1ccc(-c2cc(C(=O)N[C@@H](CO)C(=O)O)on2)cc1 (tested in a mixture with another compound) | 970 |
| CCCn1cnc2cc(C(=O)Nc3ccc(-c4cccc(CN(C)C)c4)cc3)ccc2c1=O | 930 |
| COc1ccc2nccc([C@@H](O)CN3CCC(NCc4ccc5c(c4)N(C)C(=O)CO5)CC3)c2c1 | 750 |
| CCOC(=O)c1ccc(-c2c(C(F)(F)F)noc2-c2cc(CC)c(OC)cc2O)o1 | 210 |
| Cc1[nH]c(C)c(-c2ccc(-c3ccc(F)cc3)cc2)c(=O)c1Cl | 660 |
| COc1cc(-c2nc(-c3ccc4c(c3)CCC4=NO)c(-c3ccncc3)[nH]2)ccc1OCCN1CCN(C)CC1 | 760 |
| CO/C(=C\C=C\c1cc2cc(Cl)c(Cl)cc2[nH]1)C(=O)N[C@H]1CN2CCC1CC2 | 1210 |
| O=C(Nc1cccc(CN2CCCN(Cc3ccsc3)CC2)c1)c1cc2ccccc2s1 | 760 |
| Cc1cccc2[nH]c(-c3cccc(-c4ccc(NC(=O)Nc5ccc6c(c5)OCO6)cc4)c3)nc12 | 140 |

| Structure (SMILES) | IC50 [nM] |
| --- | --- |
| O=c1cc(NCCCNCc2cc(Br)cs2)[nH]c2ccccc12 | 1060 |
| CS(=O)(=O)N1CC2(CCN(CCC(NC(=O)/C=C/c3ccccc3)c3ccc(Cl)c(Cl)c3)CC2)c2ccccc21 (stereo not drawn) | 780 |
| CCNc1cc(C(=O)N[C@@H](Cc2ccccc2)[C@H](O)CNC2CCC(C)(C)C2)cc(N2CCCCS2(=O)=O)c1 (stereo partly drawn) | 140 |
| COc1c(C2CCN(CCCCNC(=O)c3cc(-c4ccc(Cl)cc4)oc3C)CC2)ccc2c1CCCC2 | 880 |
| COc1cccc2cc(C(=O)N[C@@H](CC(C)C)C(=O)N[C@H](/C=N/NC(=O)OC(C)(C)C)CC(C)C)oc12 | 900 |
| O=C(Nc1cccnc1)c1cc(C(=O)Nc2cccnc2)cc([N+](=O)[O-])c1 | 1120 |
| Cc1ccc(Cn2ncc(NC3CCNCC3)c(Cl)c2=O)cc1NC(=O)Nc1ccc(-c2ccccc2)cc1 | 660 |
| CC(C)Sc1nc(-c2ccccc2)nc2c1COC(C)(C)C2 | 860 |
| CC[C@H]1CN2CC[C@@H]1C[C@H]2[C@H](O)c1cc(-c2ccccc2)nc2ccc(O)cc12 | 190 |
| C=CCC1OC(=O)c2cc(OC)cc(OC)c21 (stereo not drawn) | 340 |
| CCNc1cc(C(=O)N[C@@H](Cc2ccccc2)[C@H](O)CN[C@H](C)c2ccccc2)cc(N2CCCC2=O)c1 | 50 |
| Cc1cccc2[nH]c(-c3cccc(-c4ccc(CN5CCC(C(N)=O)CC5)cc4)c3)nc12 | 850 |
| CCCc1cc(Cc2cnc(N)nc2N)cc(OC)c1OC | 990 |
| COc1ccc2nccc([C@@H](O)CN3CCC(NCc4cc5cc([N+](=O)[O-])ccc5[nH]4)CC3)c2c1 | 120 |
| CCCc1cc(=O)[nH]c(-n2nc(C)cc2NC(=O)C(CC)c2ccccc2)n1 (stereo not drawn) | 940 |
| O=C(/C=C/c1ccc(Cl)c(Cl)c1)NCCCCCN1CCN(C(=O)Nc2ccc(C(F)(F)F)cc2)CC1 | 720 |
| O=C(NCC1CCN(Cc2ccc3c(c2)OCCO3)C1)c1cc(-c2cccc(C(F)(F)F)c2)cs1 (stereo not drawn) | 980 |
| O=C(NCCN1CCC(c2ccncc2)CC1)c1ccc(Nc2nccc(Nc3ccc(Oc4ccccc4)cc3)n2)cc1 | 720 |
| CCC1CN2CCc3c([nH]c4ccccc34)C2CC1CC1=NCCc2c1[nH]c1ccc(OC)cc21 (stereo not drawn) | 640 |
| CCCC(C)N(Cc1ccc(C(C)(C)C)cc1)C(=O)c1cccc(OC)c1 (stereo not drawn) | 340 |
| Cc1cccc2[nH]c(-c3cccc(-c4cccc(CNCCc5ccncc5)c4)c3)nc12 | 140 |
| CCOc1c(Br)cc(C)cc1CNCCCNc1nc2ccccc2[nH]1 | 670 |
